Assay results: patent US9464007B2, “Antifungal wallboards and building materials and methods for the production thereof” (priority 2004, dated 2016)
Converted amounts (≈) assume the structure as drawn. “And” between values parts separate entries of the source, which are not always exact repeats. Equal entries are not always repeated. Where two headings read alike, the source gives them in different places.

How the values were obtained:
Assay type in all cases: cell-based
[1] = test system: Aureobasidium pullulans; test: Synergy testing of 2-way mixtures, 24 well plates; conditions: A. pullulans
Procedure: (§1) For synergism testing of the 2-way mixtures 100 ul of each fungicide were filled into the 24 well plates (8 different rates) and 800 ul of 0.3% PDA media containing the spore suspension was added (see above). Different ratios of the 2 fungicide rates were tested at the same time.
(§2) Alternaria tenuissima, Penicillium citrinum, Stachybotrys chartarum, Aspergillus niger and Aureobasidium pullulans were separately cultivated on PDA media to […] sporulation. Spore suspensions were produced for each fungi.
(§3) For the mixtures of different fungicides the synergism was calculated based on the Colby equation, which is described below: […]
(§4) The fungicidal action to be expected, We, for a given combination of two fungicides can be calculated as follows (see COLBY, S. R. “Calculating synergistic and antagonistic response of herbicide combinations”. Weeds 15, pages 20-22; 1967): We=X+[Y×(100−X)/100] wherein:
(§5) If the activity actually observed is greater than the expected value We, there is a synergistic effect.
(§6) All rates below are expressed as mg ai/l (i.e. ppm).

[2] = test system: Alternaria tenuissima; test: Liquid culture assay on 24 well plates, solo ai (EC95/MIC); conditions: for EC95: 24° C., 3-6 days; for MIC: Alternaria tenuissima, read-out: MIC Minimal Inhibition concentration
Procedure: as §2
(§7) Test method used: liquid culture assay on 24 well plates.
(§8) For solo (i.e. single) ai testing the formulated fungicide (100 ul) was filled into the 24 well plates (8 different rates: 100-0.05 mg ai/l final volume as described above) and 100 ul distilled water was added. Afterwards 800 ul of 0.3% PDA media was added to the plate. The spore suspension of the specific fungi was added to this media in advance containing approx. 100.000 spores/ml. The 24 well plates were sealed and incubated at 24° C.
(§9) Dependent on the growth properties of each organisms, the evaluation was done after 3 to 6 days, when the surface of the check well was covered with mycelium. The evaluation was performed by assessing the growth of the fungi related to the check growth. The results are expressed as % activity relative to the check (values of 0-100% growth). Afterwards the results were converted in % growth inhibition. EC95 values and also MIC (minimal inhibition concentration) values were derived for each compound.
(§10) For each solo compound a graph was drawn of percentage inhibition against the concentration of the fungicide. […] Also the concentration that gave the minimum inhibition concentration was derived as MIC value

[3] = test system: Stachybotrys chartarum; test: as above; conditions: for EC95: 24° C., 3-6 days; for MIC: Stachybotrys chartarum, read-out: MIC Minimal Inhibition concentration
Procedure: as §2, §7, §8, §9, §10

[4] = test system: Aspergillus niger; test: as above; conditions: for EC95: 24° C., 3-6 days; for MIC: Aspergillus niger, read-out: MIC Minimal Inhibition concentration
Procedure: as §2, §7, §8, §9, §10

[5] = test system: Aureobasidium pullulans; test: as above; conditions: for EC95: 24° C., 3-6 days; for MIC: Aureobasidium pullulans, read-out: MIC Minimal Inhibition concentration
Procedure: as §2, §7, §8, §9, §10

[6] = test system: Penicillium citrinum; test: as above; conditions: for EC95: 24° C., 3-6 days; for MIC: Penicillium citrinum, read-out: MIC Minimal Inhibition concentration
Procedure: as §2, §7, §8, §9, §10

[7] = test system: Aspergillus niger; test: Synergy testing of 2-way mixtures, 24 well plates; conditions: A. niger; for inh % (DFZ alone): rate (DFZ) 0.8 mg ai/l
Procedure: as §1, §2, §3, §4, §5, §6

[8] = test system: Penicillium citrinum; test: Synergy testing of 2-way mixtures, 24 well plates; conditions: P. citrinum, PPZ + DFZ test
Procedure: as §1, §2, §3, §4, §5, §6

[9] = test system: Stachybotrys chartarum; test: Fungal growth on agar medium containing fungicide, petri dish, visual assessment; conditions: for EC50: 528 h, read-out: Concentration required for 50% Activity; for EC50 / Concentration required for 80% Activity: after 22 days at 25° C.
Procedure: (§11) A fungal growth medium was made comprising yeast extract (4 g) agar (8 g), magnesium sulphate (0.2 g), sodium nitrate (2.4 g), potassium chloride (0.2 g), potassium dihydrogen orthophosphate (0.6 g), glycerol (8 ml), distilled water (390 ml). Fungicides as set out in Tables 1 to 4 were added at levels of 5000, 100, 10, 1, 0.1 and 0.01 mg fungicide/liter of growth medium to give six different growth medium compositions for each fungicide. These growth media containing the fungicide were each put into petri dishes.
(§12) Cladosporium cladosporoides, Oligoporus placenta, Stachybotrys chartarum and Memnionella echinata were separately propagated on Luria agar to suppress sporulation and mycelial plugs were transferred upside down onto the petri dishes containing the growth medium.
(§13) A visual assessment was made of the surface of the petri dishes. The result recorded was the percentage of the surface that remained free of fungus. This was recorded as percentage activity
(§14) For each fungicide, a graph was drawn of percentage activity against concentration of fungicide in the growth medium. From this graph, the concentrations of fungicide required to achieve 50%, 80% and 95% activity was estimated. These figures are given in the results tables.
1. Stachybotrys chartarum; Results after 22 days at 25° C.

[10] = test system: Cladosporium cladosporioides; test: as above; conditions: for EC50: 624 h, read-out: Concentration required for 50% Activity; for EC50 / Concentration required for 80% Activity: after 26 days at 20° C.
Procedure: as §11, §12, §13, §14
3. Cladosporium cladosporioides; Results after 26 days at 20° C.

[11] = test system: Memnionella echinata; test: as above; conditions: after 23 days at 25° C.; for EC50: 552 h, read-out: Concentration required for 50% Activity
Procedure: as §11, §12, §13, §14
2. Memnionella echinata; Results after 23 days at 25° C.

[12] = test system: Oligoporus placenta; test: as above
Procedure: as §11, §12, §13, §14
4. Oligoporus placenta; Results.

[13] = test system: Stachybotrys chartarum; test: Synergy testing of 2-way mixtures, 24 well plates; conditions: S. chartarum; rate (FDL) 0.05 mg ai/l
Procedure: as §1, §2, §3, §4, §5, §6

[14] = A. tenuissima, rates 0-100 mg ai/l, mean values of n = 5
[15] = S. chartarum, rates 0-100 mg ai/l, mean values of n = 5
[16] = A. niger, rates 0-100 mg ai/l, mean values of n = 5
[17] = A. pullulans, rates 0-100 mg ai/l, mean values of n = 5
[18] = P. citrinum, rates 0-100 mg ai/l, mean values of n = 5

| SMILES | EC95 ([2]; A. tenuissima) [mg ai/l] | MIC [2, 14] [µg/mL] | EC95 ([3]; S. chartarum) [mg ai/l] | MIC [3, 15] [µg/mL] | EC95 ([4]; A. niger) [mg ai/l] | MIC [4, 16] [µg/mL] | EC95 ([5]; A. pullulans) [mg ai/l] | MIC [5, 17] [µg/mL] | EC95 ([6]; P. citrinum) [mg ai/l] | MIC [6, 18] [µg/mL] | Concentration required for 95% Activity [9] [mg/L] | EC50 [9] [µg/mL] | Concentration required for 80% Activity [9] [mg/L] | Concentration required for 95% Activity [10] [mg/L] | EC50 [10] [µg/mL] | Concentration required for 80% Activity [10] [mg/L] | EC50 [11] [µg/mL] | Concentration required for 80% Activity [11] [mg/L] | Concentration required for 95% Activity [12] [mg/L] | other results |
| --- | --- | --- | --- | --- | --- | --- | --- | --- | --- | --- | --- | --- | --- | --- | --- | --- | --- | --- | --- | --- |
| Cc1cc(C2CC2)nc(Nc2ccccc2)n1 [Cyprodinil] | >100 | > 100 | 46 | 50 (≈ 222 µM) | 7.4 | 12.5 (≈ 55.5 µM) | >100 | > 100 | >100 | > 100 | – | – | – | – | – | – | – | – | – | inh % (CDL alone) ([1]; rate (CDL) 0.8 mg ai/l): 0%; inh % (CDL alone) ([1]; rate (CDL) 1.6 mg ai/l): 10%; inh % (CDL alone) ([1]; rate (CDL) 3.1 mg ai/l): 10%; inh % (CDL alone) ([1]; rate (CDL) 12.5 mg ai/l): 30%; inh % (CDL alone) ([1]; rate (CDL) 50 mg ai/l): 30%; inh % (CDL alone) ([1]; rate (CDL) 100 mg ai/l): 30% |
| CC1COC(Cn2cncn2)(c2ccc(Oc3ccc(Cl)cc3)cc2Cl)O1 (centres unmarked) [Difenoconazole] | – | – | – | – | – | – | – | – | – | – | 23 | 0.68 (≈ 1.67 µM) | 3.5 | 0.79 | 0.04 (≈ 0.0985 µM) | 0.28 | 5.4 (≈ 13.3 µM) | 43 | <0.1 | inh % (DFZ alone) ([7]; DFZ + TBZ test): 10%; inh % (DFZ alone) ([7]; PPZ + DFZ test): 30%; inh % (DFZ alone) ([1]; rate (DFZ) 0.05 mg ai/l, PPZ + DFZ test): 10%; inh % (DFZ alone) ([1]; rate (DFZ) 0.2 mg ai/l, DFZ + FDL test): 70%; inh % (DFZ alone) ([1]; rate (DFZ) 0.2 mg ai/l, DFZ + TBZ test, listed as DFZ): 70% and 90%; inh % (DFZ alone) ([1]; rate (DFZ) 0.2 mg ai/l, PPZ + DFZ test): 70%; inh % (DFZ alone) ([1]; rate (DFZ) 0.8 mg ai/l, DFZ + CDL test): 90%; inh % (DFZ alone) ([1]; rate (DFZ) 0.8 mg ai/l, DFZ + TBZ test): 90%; inh % (DFZ alone) ([1]; rate (DFZ) 1.6 mg ai/l, DFZ + CDL test): 90%; inh % (DFZ alone) ([1]; rate (DFZ) 1.6 mg ai/l, DFZ + TBZ test): 90%; inh % (DFZ alone) ([1]; rate (DFZ) 3.1 mg ai/l, DFZ + CDL test): 70%; inh % (DFZ alone) ([1]; rate (DFZ) 3.1 mg ai/l, DFZ + FDL test): 70%; inh % (DFZ alone) ([1]; rate (DFZ) 3.1 mg ai/l, DFZ + TBZ test): 70%; inh % (DFZ alone) ([1]; rate (DFZ) 3.1 mg ai/l, PPZ + DFZ test): 50%; inh % (DFZ alone) ([8]; rate (DFZ) 0.05 mg ai/l): 0%; inh % (DFZ alone) ([8]; rate (DFZ) 0.2 mg ai/l): 10%; inh % (DFZ alone) ([8]; rate (DFZ) 0.8 mg ai/l): 30% |
| N#Cc1c[nH]cc1-c1cccc2c1OC(F)(F)O2 [Fludioxonil] | 1.3 | – | 0.18 | – | >100 | – | >100 | – | 0.18 | – | – | – | – | – | – | – | – | – | – | inh % (FDL alone) [13]: 10%; inh % (FDL alone) ([7]; rate (FDL) 0.05 mg ai/l): 0%; inh % (FDL alone) ([7]; rate (FDL) 0.2 mg ai/l): 30%; inh % (FDL alone) ([7]; rate (FDL) 0.8 mg ai/l): 30%; inh % (FDL alone) ([7]; rate (FDL) 1.6 mg ai/l): 30%; inh % (FDL alone) ([7]; rate (FDL) 3.1 mg ai/l): 30%; inh % (FDL alone) ([7]; rate (FDL) 12.5 mg ai/l): 30%; inh % (FDL alone) ([7]; rate (FDL) 50 mg ai/l): 30%; inh % (FDL alone) ([7]; rate (FDL) 100 mg ai/l): 30%; inh % (FDL alone) ([1]; rate (FDL) 0.8 mg ai/l): 10%; inh % (FDL alone) ([1]; rate (FDL) 1.6 mg ai/l): 10%; inh % (FDL alone) ([1]; rate (FDL) 3.1 mg ai/l): 10%; inh % (FDL alone) ([1]; rate (FDL) 12.5 mg ai/l): 10%; inh % (FDL alone) ([1]; rate (FDL) 50 mg ai/l): 10%; inh % (FDL alone) ([1]; rate (FDL) 100 mg ai/l): 10%; MIC [2]: 1.6 µg/mL (≈ 6.45 µM); MIC [3]: 0.2 µg/mL (≈ 0.806 µM); MIC [4]: > 100 µg/mL; MIC [5]: > 100 µg/mL; MIC [6]: 0.2 µg/mL (≈ 0.806 µM) |
| CCCC1COC(Cn2cncn2)(c2ccc(Cl)cc2Cl)O1 (centres unmarked) [Propiconazole] | – | – | – | – | – | – | – | – | – | – | 360 | 15 (≈ 43.8 µM) | 49 | 4.5 | 0.19 (≈ 0.555 µM) | 1.7 | 88 (≈ 257 µM) | >100 | 0.4 | inh % (PPZ alone) ([8]; rate (PPZ) 0.8 mg ai/l): 70% |
| c1ccc2[nH]c(-c3cscn3)nc2c1 [Thiabendazole] | >100 | > 100 | 46 | 50 (≈ 248 µM) | 3.1 | 3.1 (≈ 15.4 µM) | 15 | 50 (≈ 248 µM) | 0.72 | 0.8 (≈ 3.98 µM) | 91 | 17 (≈ 84.5 µM) | 49 | 8 | 0.78 (≈ 3.88 µM) | 3.5 | 28 (≈ 139 µM) | 65 | >5000 | inh % (TBZ alone) ([7]; rate (TBZ) 1.6 mg ai/l): 10%; inh % (TBZ alone) ([1]; rate (TBZ) 12.5 mg ai/l): 70% |
